Source: ChEMBL document CHEMBL3826915, “Design and comparative anticonvulsant activity assessment of CNS-active alkyl-carbamoyl imidazole derivatives” (Bioorg Med Chem, 2016)
Calls of active or inactive are those of the source. No cut-off for these calls is given here.

Columns and labels:
Mus musculus [1] = assay: Anticonvulsant activity in albino CF1 mouse assessed as protection against maximal electroshock-induced seizures at 100 mg/kg, ip after 0.5 hrs; format: functional, organism-based
Mus musculus [2] = assay: Anticonvulsant activity in albino CF1 mouse assessed as protection against maximal electroshock-induced seizures at 30 mg/kg, ip after 2 hrs; format: functional, organism-based
Mus musculus [3] = assay: Anticonvulsant activity in albino CF1 mouse assessed as protection against 32 mA current-induced seizure at 30 mg/kg, ip after 0.5 hrs by 6 Hz psychomotor test; format: functional, organism-based
Mus musculus [4] = assay: Anticonvulsant activity in albino CF1 mouse assessed as protection against 32 mA current-induced seizure at 30 mg/kg, ip after 2 hrs by 6 Hz psychomotor test; format: functional, organism-based
Mus musculus [5] = assay: Anticonvulsant activity in albino CF1 mouse assessed as protection against 44 mA current-induced seizure at 50 mg/kg, ip after 0.25 hrs by 6 Hz psychomotor test; format: functional, organism-based
Mus musculus [6] = assay: Anticonvulsant activity in albino CF1 mouse assessed as protection against 44 mA current-induced seizure at 50 mg/kg, ip after 1 hr by 6 Hz psychomotor test; format: functional, organism-based
Mus musculus [7] = assay: Anticonvulsant activity in albino CF1 mouse assessed as protection against 44 mA current-induced seizure at 50 mg/kg, ip after 2 hrs by 6 Hz psychomotor test; format: functional, organism-based
Mus musculus [8] = assay: Neurotoxicity in albino CF1 mouse assessed as behavioral impairment at 30 mg/kg, ip after 0.5 hrs by rotorod test; format: toxicity, organism-based; details: in vivo
Mus musculus [9] = assay: Neurotoxicity in albino CF1 mouse assessed as behavioral impairment at 300 mg/kg, ip after 0.5 hrs by rotorod test; format: toxicity, organism-based; details: in vivo
Mus musculus [10] = assay: Neurotoxicity in albino CF1 mouse assessed as behavioral impairment at 30 mg/kg, ip after 2 hrs by rotorod test; format: toxicity, organism-based; details: in vivo
Mus musculus [11] = assay: Neurotoxicity in albino CF1 mouse assessed as behavioral impairment at 100 mg/kg, ip after 2 hrs by rotorod test; format: toxicity, organism-based; details: in vivo
Mus musculus [12] = assay: Neurotoxicity in albino CF1 mouse assessed as behavioral impairment at 300 mg/kg, ip after 2 hrs by rotorod test; format: toxicity, organism-based; details: in vivo
Mus musculus [13] = assay: Neurotoxicity in albino CF1 mouse assessed as behavioral impairment at 50 mg/kg, ip after 0.25 hrs by rotorod test; format: toxicity, organism-based; details: in vivo
Mus musculus [14] = assay: Neurotoxicity in albino CF1 mouse assessed as behavioral impairment at 50 mg/kg, ip after 0.5 hrs by rotorod test; format: toxicity, organism-based; details: in vivo
Mus musculus [15] = assay: Neurotoxicity in albino CF1 mouse assessed as behavioral impairment at 50 mg/kg, ip after 1 hr by rotorod test; format: toxicity, organism-based; details: in vivo
Mus musculus [16] = assay: Neurotoxicity in albino CF1 mouse assessed as behavioral impairment at 50 mg/kg, ip after 2 hrs by rotorod test; format: toxicity, organism-based; details: in vivo
Rattus norvegicus [17] = assay: Anticonvulsant activity in albino Sprague-Dawley rat assessed as protection against maximal electroshock-induced seizures at 30 mg/kg, po after 1 hr; format: functional, organism-based
Rattus norvegicus [18] = assay: Anticonvulsant activity in albino Sprague-Dawley rat assessed as protection against maximal electroshock-induced seizures at 30 mg/kg, po after 2 hrs; format: functional, organism-based
Rattus norvegicus [19] = assay: Neurotoxicity in albino Sprague-Dawley rat assessed as behavioral impairment at 30 mg/kg, ip after 0.25 hrs by rotorod test; format: toxicity, organism-based; details: in vivo
Rattus norvegicus [20] = assay: Neurotoxicity in albino Sprague-Dawley rat assessed as behavioral impairment at 30 mg/kg, po after 0.25 hrs by rotorod test; format: toxicity, organism-based; details: in vivo
Rattus norvegicus [21] = assay: Neurotoxicity in albino Sprague-Dawley rat assessed as behavioral impairment at 30 mg/kg, ip after 0.5 hrs by rotorod test; format: toxicity, organism-based; details: in vivo
Rattus norvegicus [22] = assay: Neurotoxicity in albino Sprague-Dawley rat assessed as behavioral impairment at 30 mg/kg, po after 0.5 hrs by rotorod test; format: toxicity, organism-based; details: in vivo
Rattus norvegicus [23] = assay: Neurotoxicity in albino Sprague-Dawley rat assessed as behavioral impairment at 30 mg/kg, ip after 1 hr by rotorod test; format: toxicity, organism-based; details: in vivo
Rattus norvegicus [24] = assay: Neurotoxicity in albino Sprague-Dawley rat assessed as behavioral impairment at 30 mg/kg, po after 1 hr by rotorod test; format: toxicity, organism-based; details: in vivo
Rattus norvegicus [25] = assay: Neurotoxicity in albino Sprague-Dawley rat assessed as behavioral impairment at 30 mg/kg, ip after 2 hrs by rotorod test; format: toxicity, organism-based; details: in vivo
Rattus norvegicus [26] = assay: Neurotoxicity in albino Sprague-Dawley rat assessed as behavioral impairment at 30 mg/kg, po after 2 hrs by rotorod test; format: toxicity, organism-based; details: in vivo
Rattus norvegicus [27] = assay: Anticonvulsant activity in ip dosed albino Sprague-Dawley rat assessed as protection against maximal electroshock-induced seizures; format: functional
Rattus norvegicus [28] = assay: Anticonvulsant activity in ip dosed albino Sprague-Dawley rat assessed as protection against maximal electroshock-induced seizures by measuring time to peak effect; format: functional
[29] = Protective index, ratio of TD50 for neurotoxicity in ip dosed albino Sprague-Dawley rat to ED50 for anticonvulsant activity in ip dosed maximal electroshock-induced seizure albino Sprague-Dawley rat model; format: toxicity, organism-based; details: in vivo, read-out: Ratio TD50/ED50
Rattus norvegicus [30] = assay: Anticonvulsant activity in ip dosed albino Sprague-Dawley rat assessed as protection against subcutaneous metrazol-induced seizures; format: functional
[31] = Protective index, ratio of TD50 for neurotoxicity in ip dosed albino Sprague-Dawley rat to ED50 for anticonvulsant activity in ip dosed subcutaneous metrazol-induced seizure albino Sprague-Dawley rat model; format: toxicity, organism-based; details: in vivo, read-out: Ratio TD50/ED50
[32] = Neurotoxicity in ip dosed albino Sprague-Dawley rat assessed as motor impairment by rotorod test; format: toxicity, organism-based; details: in vivo
Rattus norvegicus [33] = assay: Anticonvulsant activity in ip dosed albino Sprague-Dawley rat assessed as protection against subcutaneous metrazol-induced seizures by measuring time to peak effect; format: functional
Mus musculus [34] = assay: Anticonvulsant activity in ip dosed albino CF1 mouse assessed as protection against maximal electroshock-induced seizures; format: functional
[35] = Protective index, ratio of TD50 for neurotoxicity in ip dosed albino CF1 mouse to ED50 for anticonvulsant activity in ip dosed maximal electroshock-induced seizure albino CF1 mouse model; format: toxicity, organism-based; details: in vivo, read-out: Ratio TD50/ED50
Mus musculus [36] = assay: Anticonvulsant activity in ip dosed albino CF1 mouse assessed as protection against subcutaneous metrazol-induced seizures; format: functional
[37] = Protective index, ratio of TD50 for neurotoxicity in ip dosed albino CF1 mouse to ED50 for anticonvulsant activity in ip dosed […] metrazol-induced seizure albino CF1 mouse model; format: toxicity, organism-based; details: in vivo, read-out: Ratio TD50/ED50
Mus musculus [38] = assay: Anticonvulsant activity in ip dosed albino CF1 mouse assessed as protection against maximal electroshock-induced seizures by measuring time to peak effect; format: functional
Mus musculus [39] = assay: Anticonvulsant activity in ip dosed albino CF1 mouse assessed as protection against subcutaneous metrazol-induced seizures by measuring time to peak effect; format: functional
Mus musculus [40] = assay: Anticonvulsant activity in ip dosed albino CF1 mouse assessed as protection against 6 Hz current-induced seizures by psychomotor test; format: functional
Mus musculus [41] = assay: Anticonvulsant activity in ip dosed albino CF1 mouse assessed as protection against 6 Hz current-induced seizure by measuring time to peak effect; format: functional
[42] = Neurotoxicity in ip dosed albino CF1 mouse assessed as motor impairment by rotorod test; format: toxicity, organism-based; details: in vivo
[43] = Protective index, ratio of TD50 for neurotoxicity in ip dosed albino CF1 mouse to ED50 for anticonvulsant activity in ip dosed 6 Hz current-induced seizure albino CF1 mouse model; details: in vivo
Mus musculus [44] = assay: Anticonvulsant activity in ip dosed AGS-susceptible frings albino CF1 mouse assessed as protection against sound-induced seizures; format: functional
[45] = Protective index, ratio of TD50 for neurotoxicity in ip dosed albino CF1 mouse to ED50 for protection against sound-induced seizures in ip dosed AGS-susceptible frings albino CF1 mouse; format: toxicity, organism-based; details: CF1 (ED50 arm: AGS-susceptible Frings), in vivo, read-out: Ratio TD50/ED50
Mus musculus [46] = assay: Anticonvulsant activity in albino CF1 mouse assessed as protection against maximal electroshock-induced seizures at 100 mg/kg, ip after 2 hrs; format: functional, organism-based
Mus musculus [47] = assay: Anticonvulsant activity in albino CF1 mouse assessed as protection against 44 mA current-induced seizure at 100 mg/kg, ip after 0.25 hrs by 6 Hz psychomotor test; format: functional, organism-based
Mus musculus [48] = assay: Anticonvulsant activity in albino CF1 mouse assessed as protection against 44 mA current-induced seizure at 100 mg/kg, ip after 0.5 hrs by 6 Hz psychomotor test; format: functional, organism-based
Mus musculus [49] = assay: Neurotoxicity in albino CF1 mouse assessed as behavioral impairment at 100 mg/kg, ip after 0.5 hrs by rotorod test; format: toxicity, organism-based; details: in vivo
Mus musculus [50] = assay: Neurotoxicity in albino CF1 mouse assessed as behavioral impairment at 100 mg/kg, ip after 0.25 hrs by rotorod test; format: toxicity, organism-based; details: in vivo
Mus musculus [51] = assay: Neurotoxicity in albino CF1 mouse assessed as behavioral impairment at 100 mg/kg, ip after 1 hr by rotorod test; format: toxicity, organism-based; details: in vivo
Rattus norvegicus [52] = assay: Anticonvulsant activity in albino Sprague-Dawley rat assessed as protection against maximal electroshock-induced seizures at 30 mg/kg, po after 0.25 hrs; format: functional, organism-based
Rattus norvegicus [53] = assay: Anticonvulsant activity in albino Sprague-Dawley rat assessed as protection against maximal electroshock-induced seizures at 30 mg/kg, ip after 0.5 hrs; format: functional, organism-based

SMILES: CCCC(COC(=O)NCCCn1ccnc1)C(C)CC (stereo not given)
- Activity (Mus musculus [1]): Active
- Activity (Mus musculus [2]): inactive
- Activity (Mus musculus [3]): inactive
- Activity (Mus musculus [4]): inactive
- Activity (Mus musculus [5]): inactive
- Activity (Mus musculus [6]): inactive
- Activity (Mus musculus [7]): inactive
- Activity (Mus musculus [8]): Non-toxic
- Activity (Mus musculus [9]): Toxic
- Activity (Mus musculus [10]): Non-toxic
- Activity (Mus musculus [11]): Non-toxic
- Activity (Mus musculus [12]): Toxic
- Activity (Mus musculus [13]): Non-toxic
- Activity (Mus musculus [14]): Non-toxic
- Activity (Mus musculus [15]): Non-toxic
- Activity (Mus musculus [16]): Non-toxic
- Activity (Rattus norvegicus [17]): inactive
- Activity (Rattus norvegicus [18]): inactive
- Activity (Rattus norvegicus [19]): Non-toxic
- Activity (Rattus norvegicus [20]): Non-toxic
- Activity (Rattus norvegicus [21]): Non-toxic
- Activity (Rattus norvegicus [22]): Non-toxic
- Activity (Rattus norvegicus [23]): Non-toxic
- Activity (Rattus norvegicus [24]): Non-toxic
- Activity (Rattus norvegicus [25]): Non-toxic
- Activity (Rattus norvegicus [26]): Non-toxic
- ED50 (Rattus norvegicus [27]): 20 mg/kg
- Time (Rattus norvegicus [28]): 0.25 h
- selectivity ratio [29]: 4.8
- ED50 (Rattus norvegicus [30]): > 95 mg/kg
- selectivity ratio [31]: 1
- TD50 [32]: 96 mg/kg
- Time (Rattus norvegicus [33]): 0.25 h
- ED50 (Mus musculus [34]): 24 mg/kg
- selectivity ratio [35]: 2.8
- ED50 (Mus musculus [36]): > 100 mg/kg
- selectivity ratio [37]: 0.67
- Time (Mus musculus [38]): 0.5 h
- Time (Mus musculus [39]): 0.5 h
- ED50 (Mus musculus [40]): inactive
- Time (Mus musculus [41]): 0.5 h
- TD50 [42]: 67 mg/kg

SMILES: CCCC(C(N)=O)C(C)CC (stereo not given)
- ED50 (Mus musculus [36]): 21 mg/kg
- selectivity ratio [37]: 2.3
- Time (Mus musculus [38]): 0.5 h
- Time (Mus musculus [39]): 0.5 h
- ED50 (Mus musculus [40]): 27 mg/kg
- Time (Mus musculus [41]): 0.5 h
- selectivity ratio [43]: 1.8
- TD50 [42]: 48 mg/kg
- ED50 (Mus musculus [44]): 20 mg/kg
- selectivity ratio [45]: 2.4

SMILES: CCC(CC)COC(=O)NCCCn1ccnc1
- Activity (Mus musculus [1]): Active
- Activity (Mus musculus [2]): inactive
- Activity (Mus musculus [46]): Active
- Activity (Mus musculus [4]): inactive
- Activity (Mus musculus [47]): Active
- Activity (Mus musculus [48]): Active
- Activity (Mus musculus [8]): Non-toxic
- Activity (Mus musculus [49]): Toxic
- Activity (Mus musculus [9]): Toxic
- Activity (Mus musculus [10]): Non-toxic
- Activity (Mus musculus [11]): Non-toxic
- Activity (Mus musculus [12]): Toxic
- Activity (Mus musculus [50]): Toxic
- Activity (Mus musculus [51]): Non-toxic
- Activity (Rattus norvegicus [52]): inactive
- Activity (Rattus norvegicus [53]): Active
- Activity (Rattus norvegicus [19]): Non-toxic
- Activity (Rattus norvegicus [20]): Non-toxic
- Activity (Rattus norvegicus [21]): Non-toxic
- Activity (Rattus norvegicus [22]): Non-toxic
- Activity (Rattus norvegicus [23]): Non-toxic
- Activity (Rattus norvegicus [24]): Non-toxic
- Activity (Rattus norvegicus [25]): Non-toxic
- Activity (Rattus norvegicus [26]): Non-toxic
- ED50 (Mus musculus [34]): 26 mg/kg
- selectivity ratio [35]: 3.9
- ED50 (Mus musculus [36]): > 85 mg/kg
- selectivity ratio [37]: 1.2
- Time (Mus musculus [38]): 0.5 h
- Time (Mus musculus [39]): 0.5 h
- ED50 (Mus musculus [40]): inactive
- Time (Mus musculus [41]): 0.5 h
- TD50 [42]: 102 mg/kg
